Tests used:
Assay type in all cases: binding
PCSK9 [1] = biological target: T1, PCSK9 (Homo sapiens, UniProt Q8NBP7); test: PCSK9 Alexa FRET Plus TR-FRET assay
T1 construct: biotin (biotinylated); purchased
Experimental: A separate solution containing 1920 nM of the AlexaFluor tagged cyclic peptide is made in the same buffer system. […] The reaction is incubated at room temperature for at least two hours prior to fluorescence measurements using an Envision Multilabel Reader. IC50 values are determined by fitting data to a sigmoidal dose-response curve using nonlinear regression. Ki is then calculated from the Ic50 and the KD of AF cyclic peptide. Counts (B-counts) of the europium-labeled PCSK9 are followed to observe if compounds are adversely affecting PCSK9. A fall off of the B-counts is likely indicates a false positive of inhibition. Data from this procedure is reported as “P=‘numerical value’ (nanomolar)”

PCSK9 [2] = biological target: T1, PCSK9; test: PCSK9 Alexa FRET Ultra TR-FRET assay
Experimental: A separate solution containing 1920 nM of the AlexaFluor tagged cyclic peptide is made in the same buffer system. […] The reaction is incubated at room temperature for at least two hours prior to fluorescence measurements using an Envision Multilabel Reader. IC50 values are determined by fitting data to a sigmoidal dose-response curve using nonlinear regression. Ki is then calculated from the Ic50 and the KD of AF cyclic peptide. Counts (B-counts) of the europium-labeled PCSK9 are followed to observe if compounds are adversely affecting PCSK9. A fall off of the B-counts is likely indicates a false positive of inhibition. Data from this procedure is reported as “Ki Ultra=‘numerical value’ (data reported is nanomolar)”

PCSK9 [3] = biological target: T1, PCSK9; test: PCSK9 Alexa FRET Standard TR-FRET assay; conditions: Ki calculated from IC50 and KD of AF cyclic peptide Reagent A; 0.5 nM PCSK9, 20 nM AF cyclic peptide; read-out: Alexa FRET Stdt TR-FRET
Experimental: A solution containing 1 nM biotinylated PCSK9+2.5 nM Lance Streptavidin Europium (Strep-Eu) is made in 50 mM HEPES pH 7.4, 0.15 M NaCl, 5 mM CaCl2, 0.01% BSA, and 0.01% Surfactant P20. A separate solution containing 40 nM of the AlexaFluor tagged cyclic peptide is made in the same buffer system. An Echo is used to transfer 0.750 ul of compound to an assay plate followed by the addition of 15 ul of PCSK9+Stept-Eu and 15 ul of AF peptide. The final assay volume is 30.750 ul containing 0.5 nM PCSK9, 1.25 nM Strep-Eu, and 20 nM AF cyclic peptide. The reaction is incubated at room temperature for at least two hours prior to fluorescence measurements using an Envision Multilabel Reader. IC50 values are determined by fitting data to a sigmoidal dose-response curve using nonlinear regression. Ki is then calculated from the Ic50 and the KD of AF cyclic peptide. Counts (B-counts) of the europium-labeled PCSK9 are followed to observe if compounds are adversely PCSK9. A fall off of the B-counts likely indicates a false positive of inhibition. Data from this procedure is reported as “A=‘numerical value’ (nanomolar)”

[4] = Ki calculated from IC50 and KD of AF cyclic peptide Reagent B, 0.5 nM PCSK9, 960 nM AF cyclic peptide, read-out: Alexa FRET Plus TR-FRET
[5] = Ki Ultra, calculated from IC50 and KD of AF cyclic peptide, 0.5 nM PCSK9, 960 nM AF cyclic peptide, read-out: Alexa FRET Ultra TR-FRET

T1 sequence (Q8NBP7 153-692): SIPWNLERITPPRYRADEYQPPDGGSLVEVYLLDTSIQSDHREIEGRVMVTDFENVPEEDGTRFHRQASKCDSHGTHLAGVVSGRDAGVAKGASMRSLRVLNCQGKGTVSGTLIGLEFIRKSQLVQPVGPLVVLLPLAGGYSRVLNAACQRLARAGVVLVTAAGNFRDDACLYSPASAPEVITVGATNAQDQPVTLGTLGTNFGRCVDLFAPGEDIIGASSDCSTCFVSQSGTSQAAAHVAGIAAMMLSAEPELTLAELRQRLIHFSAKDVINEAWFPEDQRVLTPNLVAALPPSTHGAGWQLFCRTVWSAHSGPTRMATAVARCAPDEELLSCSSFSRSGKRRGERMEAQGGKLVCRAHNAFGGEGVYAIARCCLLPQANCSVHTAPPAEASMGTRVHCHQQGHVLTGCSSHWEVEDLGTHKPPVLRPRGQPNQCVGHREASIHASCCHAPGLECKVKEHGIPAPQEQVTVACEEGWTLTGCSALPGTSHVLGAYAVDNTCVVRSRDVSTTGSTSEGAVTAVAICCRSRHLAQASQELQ

Compound | Ki (PCSK9 [1]; [4]) [pM] | Ki (PCSK9 [2]; [5]) [pM] | Ki (PCSK9 [3]) [pM] | Ki (PCSK9 [1]) [pM] | Ki (PCSK9 [2]) [pM]
COc1ccc(C[C@@H]2NC(=O)[C@H]([C@@H](C)O)NC(=O)[C@@H]3[C@@H]4CCN3C(=O)[C@@H]3Cc5cn(c6ccc(F)cc56)CCCCCCN(Cc5ccc(cc5)CCNC(=O)[C@]5(C)CCCN5C2=O)C(=O)CCC(=O)N[C@@H](C)C(=O)N[C@H](CNC(=O)COCCOCCNC(=O)COCCOCCNC(=O)CC[C@H](NC(=O)CCCCCCCCCCCCCCCCC(=O)O)C(=O)O)C(=O)N[C@@H](Cc2cccc(c2)CNC(=O)CO4)C(=O)N3)cc1 [Ex-18] | 23 | 21 | < 1260 | – | –
CCCCCCC(=O)NCCCCCCCC(=O)N[C@@H](CCC(=O)NCCOCCOCC(=O)NCCOCCOCC(=O)NCC[N+](C)(C)CCCCCC(=O)NC[C@H]1NC(=O)[C@H](C)NC(=O)CCC(=O)N2CCCCCCn3cc(c4cc(F)ccc43)C[C@@H]3NC(=O)[C@H](Cc4cccc(c4)CNC(=O)CO[C@H]4CCN(C3=O)[C@@H]4C(=O)N[C@@H]([C@@H](C)O)C(=O)N[C@@H](Cc3ccc(OC)cc3)C(=O)N3CCC[C@@]3(C)C(=O)NCCc3ccc(cc3)C2)NC1=O)C(=O)O [Ex-19] | < 6 | 1 | < 1260 | – | –
CCCCCCC(=O)NCCCCCCCC(=O)NCC[N+](C)(C)CCOCCOCCC(=O)NC[C@H]1NC(=O)[C@H](C)NC(=O)CCC(=O)N2CCCCCCn3cc(c4cc(F)ccc43)C[C@@H]3NC(=O)[C@H](Cc4cccc(c4)CNC(=O)CO[C@H]4CCN(C3=O)[C@@H]4C(=O)N[C@@H]([C@@H](C)O)C(=O)N[C@@H](Cc3ccc(OC)cc3)C(=O)N3CCC[C@@]3(C)C(=O)NCCc3ccc(cc3)C2)NC1=O [Ex-20] | < 6 | 1 | < 1260 | – | –
CCCCCC/C=C\CCCCCCCC(=O)N[C@@H](CCC(=O)NCCOCCOCC(=O)NCCOCCOCC(=O)NCC[N+](C)(C)CCCCCC(=O)NC[C@H]1NC(=O)[C@H](C)NC(=O)CCC(=O)N2CCCCCCn3cc(c4cc(F)ccc43)C[C@@H]3NC(=O)[C@H](Cc4cccc(c4)CNC(=O)CO[C@H]4CCN(C3=O)[C@@H]4C(=O)N[C@@H]([C@@H](C)O)C(=O)N[C@@H](Cc3ccc(OC)cc3)C(=O)N3CCC[C@@]3(C)C(=O)NCCc3ccc(cc3)C2)NC1=O)C(=O)O [Ex-21] | 10 | 1 | < 1260 | – | –
COc1ccc(C[C@@H]2NC(=O)[C@H]([C@@H](C)O)NC(=O)[C@@H]3[C@@H]4CCN3C(=O)[C@@H]3Cc5cn(c6ccc(F)cc56)CCCCCCN(Cc5ccc(cc5)CCNC(=O)[C@]5(C)CCCN5C2=O)C(=O)CCC(=O)N[C@@H](C)C(=O)N[C@H](CNC(=O)CCOCCOCC[N+](C)(C)CCNC(=O)COCCOCCNC(=O)COCCOCCNC(=O)CC[C@H](NC(=O)CCCCCCCCCCCCCCCCC(=O)O)C(=O)O)C(=O)N[C@@H](Cc2cccc(c2)CNC(=O)CO4)C(=O)N3)cc1 [Ex-22] | 15 | 4 | < 1260 | – | –
COc1ccc(C[C@@H]2NC(=O)[C@H]([C@@H](C)O)NC(=O)[C@@H]3[C@@H]4CCN3C(=O)[C@@H]3Cc5cn(c6ccc(F)cc56)CCCCCCN(Cc5ccc(cc5)CCNC(=O)[C@]5(C)CCCN5C2=O)C(=O)CCC(=O)N[C@@H](C)C(=O)N[C@H](CNC(=O)CCOCCOCC[N+](C)(C)CCNC(=O)CCCCCCCCCCCCCCCCC(=O)O)C(=O)N[C@@H](Cc2cccc(c2)CNC(=O)CO4)C(=O)N3)cc1 [Ex-23] | < 6 | 7 | < 1260 | – | –
COc1ccc(C[C@@H]2NC(=O)[C@H]([C@@H](C)O)NC(=O)[C@@H]3[C@@H]4CCN3C(=O)[C@@H]3Cc5cn(c6ccc(F)cc56)CCCCCCN(Cc5ccc(cc5)CCNC(=O)[C@]5(C)CCCN5C2=O)C(=O)CCC(=O)N[C@@H](C)C(=O)N[C@H](CNC(=O)CCOCCOCCNC(=O)CCCCCCCCCCCCCCCCC(=O)O)C(=O)N[C@@H](Cc2cccc(c2)CNC(=O)CO4)C(=O)N3)cc1 [Ex-24] | 9 | 18 | < 1260 | – | –
COc1ccc(C[C@@H]2NC(=O)[C@H]([C@@H](C)O)NC(=O)[C@@H]3[C@@H]4CCN3C(=O)[C@@H]3Cc5cn(c6ccc(F)cc56)C/C=C/CCCN(Cc5ccc(cc5)CCNC(=O)[C@]5(C)CCCN5C2=O)C(=O)CCC(=O)N[C@@H](C)C(=O)N[C@H](CNC(=O)CCCCC[N+](C)(C)CCNC(=O)COCCOCCNC(=O)COCCOCCNC(=O)CC[C@H](NC(=O)CCCCCCCCCCCCCCCCC(=O)O)C(=O)O)C(=O)N[C@@H](Cc2cccc(c2)CNC(=O)CO4)C(=O)N3)cc1 [Ex-25] | 6 | 9 | < 1260 | – | –
COc1ccc(C[C@@H]2NC(=O)[C@H]([C@@H](C)O)NC(=O)[C@@H]3[C@@H]4CCN3C(=O)[C@@H]3Cc5cn(c6ccc(F)cc56)CCCCCCN(Cc5ccc(cc5)CCNC(=O)[C@]5(C)CCCN5C2=O)C(=O)CCC(=O)N[C@@H](C)C(=O)N[C@H](CNC(=O)CCCCC[N+](C)(C)CCNC(=O)CCCCC[N+](C)(C)CCNC(=O)COCCOCCNC(=O)COCCOCCNC(=O)CC[C@H](NC(=O)CCCCCCCCCCCCCCCCC(=O)O)C(=O)O)C(=O)N[C@@H](Cc2cccc(c2)CNC(=O)CO4)C(=O)N3)cc1 [Ex-26] | 6 | 8 | < 1260 | – | –
COc1ccc(C[C@@H]2NC(=O)[C@H]([C@@H](C)O)NC(=O)[C@@H]3[C@@H]4CCN3C(=O)[C@@H]3Cc5cn(c6ccc(F)cc56)CCCCCCN(Cc5ccc(cc5)CCNC(=O)[C@]5(C)CCCN5C2=O)C(=O)CCC(=O)N[C@@H](C)C(=O)N[C@H](CNC(=O)CCCCC[N+](C)(C)CCNC(=O)COCCOCCNC(=O)COCCOCCNC(=O)CC[C@H](NC(=O)CCCCCCCCCCCCCCCCCCC(=O)O)C(=O)O)C(=O)N[C@@H](Cc2cccc(c2)CNC(=O)CO4)C(=O)N3)cc1 [Ex-27] | – | – | < 1260 | 14 | 6
COc1ccc(C[C@@H]2NC(=O)[C@H]([C@@H](C)O)NC(=O)[C@@H]3[C@@H]4CCN3C(=O)[C@@H]3Cc5cn(c6ccc(F)cc56)CCCCCCN(Cc5ccc(cc5)CCNC(=O)[C@]5(C)CCCN5C2=O)C(=O)CCC(=O)N[C@@H](C)C(=O)N[C@H](CNC(=O)COCCOCCOCCOCCNC(=O)CCCCC[N+](C)(C)CCNC(=O)COCCOCCNC(=O)COCCOCCNC(=O)CC[C@@H](NC(=O)CCCCCCCCCCCCCCCCC(=O)O)C(=O)O)C(=O)N[C@@H](Cc2cccc(c2)CNC(=O)CO4)C(=O)N3)cc1 [Ex-28] | 13 | 10 | < 1260 | – | –
COc1ccc(C[C@@H]2NC(=O)[C@H]([C@@H](C)O)NC(=O)[C@@H]3[C@@H]4CCN3C(=O)[C@@H]3Cc5cn(c6ccc(F)cc56)CCCCCCN(Cc5ccc(cc5)CCNC(=O)[C@]5(C)CCCN5C2=O)C(=O)CCC(=O)N[C@@H](C)C(=O)N[C@H](CNC(=O)COCCOCCNC(=O)COCCOCCNC(=O)CCOCCOCC[N+](C)(C)CCNC(=O)COCCOCCNC(=O)COCCOCCNC(=O)CC[C@H](NC(=O)CCCCCCCCCCCCCCCCC(=O)O)C(=O)O)C(=O)N[C@@H](Cc2cccc(c2)CNC(=O)CO4)C(=O)N3)cc1 [Ex-29] | 11 | 13 | < 1260 | – | –
COc1ccc(C[C@@H]2NC(=O)[C@H]([C@@H](C)O)NC(=O)[C@@H]3[C@@H]4CCN3C(=O)[C@@H]3Cc5cn(c6ccc(F)cc56)CCCCCCN(Cc5ccc(cc5)CCNC(=O)[C@]5(C)CCCN5C2=O)C(=O)CCC(=O)N[C@@H](C)C(=O)N[C@H](CNC(=O)COCCOCC[N+](C)(C)CCOCCNC(=O)COCCOCCNC(=O)COCCOCCNC(=O)CC[C@H](NC(=O)CCCCCCCCCCCCCCCCC(=O)O)C(=O)O)C(=O)N[C@@H](Cc2cccc(c2)CNC(=O)CO4)C(=O)N3)cc1 [Ex-31] | < 6 | 6 | < 1260 | – | –
COc1ccc(C[C@@H]2NC(=O)[C@H]([C@@H](C)O)NC(=O)[C@@H]3[C@@H]4CCN3C(=O)[C@@H]3Cc5cn(c6ccc(F)cc56)CCCCCCN(Cc5ccc(cc5)CCNC(=O)[C@]5(C)CCCN5C2=O)C(=O)CCC(=O)N[C@@H](C)C(=O)N[C@H](CNC(=O)CCOCCOCC[N+](C)(C)CCNC(=O)COCCOCCNC(=O)COCCOCCNC(=O)CC[C@H](NC(=O)CC[C@H](NC(=O)CCCCCCCCCCCCCCC(=O)O)C(=O)O)C(=O)O)C(=O)N[C@@H](Cc2cccc(c2)CNC(=O)CO4)C(=O)N3)cc1 [Ex-34] | < 6 | 3 | < 1260 | – | –
